{"source": "patent US8022053B2", "about": "“Oral solid dosage forms containing a low dose of estradiol” (Bayer Schering Pharma Aktiengesellschaft, priority 2004, dated 2011)", "key": {"[1]": {"conditions": "daily oral administration of 1 to 3 mg of estradiol; cited from earlier work"}, "[2]": {"experiment": "In vitro dissolution of micronised estradiol and estradiol/polyvinylpyrrolidone powder mixtures (USP apparatus 2, paddle)", "type": "physicochemical", "conditions": "900 ml purified water, 37° C., 50 rpm, powder corresponding to 100 μg estradiol hemihydrate", "experimental": "The dissolution characteristics of micronised estradiol and mixtures of micronised estradiol and polyvinylpyrrolidone, respectively, were investigated in an in vitro dissolution test system. The dissolution tester was a USP apparatus 2 (paddle system) (See <711> of USP 27) using 900 ml of purified water temperated at 37° C. as the dissolution media and a rotation speed of 50 rpm. The estradiol and the mixtures in powdery form were placed into the dissolution vessels in an amount corresponding to 100 μg of micronised estradiol hemihydrate."}, "[3]": {"experiment": "Bioavailability study, serum levels of estradiol after a single oral tablet", "type": "in vivo, healthy postmenopausal women", "conditions": "fasted, for an extended period of time", "experimental": "A bioavailability study was conducted in order to determine the serum levels of estradiol after single administration of a tablet formulation identical to the one described in Example 2 containing 190 μg and 100 μg of micronised estradiol hemihydrate, respectively. The study design was open labelled, 3 periods, 3 treatments, cross-over design with a single administration of each treatment and two weeks' washout between each period. The study population were 24 healthy postmenopausal women, age 55-75. Fasted condition was held.\nThe full-drawn line refers to the mean serum levels of estradiol achieved by administering a single dose of 190 μg to the study population, and the dotted line refers to the mean serum levels of estradiol achieved by administering a single dose of 100 μg to the study population. The mean serum level of endogenous estradiol was 3-3.5 pg/ml."}}, "note": "Marks after values point to notes of the source that are not given here."}
{"smiles": "C[C@]12CC[C@@H]3c4ccc(O)cc4CC[C@H]3[C@@H]1CC[C@@H]2O", "note": "[estradiol]", "values": [{"measurement": "Bioavailability", "setting": "[1]", "result": "3-5%"}]}
{"smiles": "C[C@]12CC[C@@H]3c4ccc(O)cc4CC[C@H]3[C@@H]1CC[C@@H]2O", "note": "[micronised estradiol hemihydrate, estradiol hemihydrate]", "values": [{"measurement": "Amount of estradiol (μg) dissolved after 5 min", "setting": "[2]; 5 min", "result": "<3* μg"}, {"measurement": "Amount of estradiol (μg) dissolved after 10 min", "setting": "[2]; 10 min", "result": "<3* μg"}, {"measurement": "Amount of estradiol (μg) dissolved after 20 min", "setting": "[2]; 20 min", "result": "<3* μg"}, {"measurement": "Amount of estradiol (μg) dissolved after 30 min", "setting": "[2]; 30 min", "result": "<3* μg"}, {"measurement": "Amount of estradiol (μg) dissolved after 60 min", "setting": "[2]; 60 min", "result": "<3", "unit": "µg"}, {"measurement": "Mean serum levels of estradiol", "setting": "[3]; Example 2 tablet with 100 μg (printed 100 pg)", "result": "5 to 20", "unit": "pg/mL"}, {"measurement": "Mean serum levels of estradiol", "setting": "[3]; Example 2 tablet with 190 μg", "result": "5 to 20", "unit": "pg/mL"}]}
